In US10206400B2, “Insecticidal compounds based on isoxazoline derivatives” (Syngenta Crop Protection LLC, priority 2009, dated 2019):

Experiments:
Format in all cases: in vivo
[1] = test system: Spodoptera littoralis; experiment: Spodoptera littoralis (Egyptian cotton leafworm) leaf disc spray test; settings: foliar, 72 h, 200 ppm spray on cotton leaf discs, L1 larvae, mortality, feeding behavior, growth regulation 3 days after treatment
Source text: Cotton leaf discs were placed on agar in a 24-well microtiter plate and sprayed with test solutions at an application rate of 200 ppm. After drying, the leaf discs were infested with 5 L1 larvae. The samples were checked for mortality, feeding behavior, and growth regulation 3 days after treatment (DAT).

[2] = test system: Diabrotica balteata; experiment: Diabrotica balteata (corn root worm) artificial diet test; settings: 120 h, 200 ppm (concentration in well 18 ppm), L2 larvae, 5 days, larval mortality, growth regulation
Method: (§1) A 24-well microtiter plate (MTP) with artificial diet was treated with test solutions at an application rate of 200 ppm (concentration in well 18 ppm) by pipetting. After drying, the MTP's were infested with L2 larvae (6-10 per well). After an incubation period of 5 days, samples were checked for larval mortality and growth regulation.

[3] = test system: Tetranychus urticae; experiment: Tetranychus urticae (two-spotted spider mite) leaf disc spray test; settings: foliar, 192 h, 200 ppm spray on bean leaf discs, mixed ages, 8 days, egg, larval and adult mortality
Source text: Bean leaf discs on agar in 24-well microtiter plates were sprayed with test solutions at an application rate of 200 ppm. After drying, the leaf discs are infested with mite populations of mixed ages. 8 days later, discs are checked for egg mortality, larval mortality, and adult mortality.

[4] = test system: Heliothis virescens; experiment: Heliothis virescens (tobacco budworm) egg/artificial diet test; settings: 96 h, 200 ppm (concentration in well 18 ppm), eggs 0-24 h old on artificial diet, 4 days, egg mortality, larval mortality, growth regulation
Method: Eggs (0-24 h old) were placed in 24-well microtiter plate on artificial diet and treated with test solutions at an application rate of 200 ppm (concentration in well 18 ppm) by pipetting. After an incubation period of 4 days, samples were checked for egg mortality, larval mortality, and growth regulation.

[5] = test system: Myzus persicae; experiment: Myzus persicae (green peach aphid), systemic test; settings: 144 h, roots of infested pea seedlings in test solution, 6 days, mortality, special effects on the plant
Source text: Myzus persicae (Green peach aphid), systemic test: Roots of pea seedlings, infested with an aphid population of mixed ages, are placed directly in the test solutions at an application rate of 12.5 ppm. 6 days after introduction, samples are checked for mortality and special effects on the plant. The following compounds gave at least 80% control of Myzus persicae: A3, B2, B3, B5, B6, B7, B8, B11, B12, C1, C2, C3,C4, C5, C6, C7, D1, E1, E2, G1, G3, G5, G6, H1, H5, H6, H9, H10, H11, H12, H13, H14, H18, H19, H20, H24, H25, and H26.

[6] = test system: Thrips tabaci; experiment: Thrips tabaci (onion thrips) leaf disc spray test; settings: foliar, 168 h, 200 ppm spray on sunflower leaf discs, mixed ages, 7 days, mortality
Method: [The procedure below names another target; the source lists this target under the same test.] Sunflower leaf discs were placed on agar in a 24-well microtiter plate and sprayed with test solutions at an application rate of 200 ppm. After drying, the leaf discs were infested with an […] population of mixed ages. After an incubation period of 7 days, samples were checked for mortality.

[7] = test system: Plutella xylostella; experiment: Plutella xylostella (diamond back moth) artificial diet test; settings: 144 h, 200 ppm (concentration in well 18 ppm), L2 larvae, 6 days, larval mortality, growth regulation
Method: as §1, with “24-well” for “A 24-well”, “(7-12” for “(6-10”, “6” for “5”

Cc1cc(C2=NOC(c3cc(Cl)cc(Cl)c3)(C(F)(F)F)C2)ccc1C(=O)N[C@@H]1CON(C)C1=O (stereo partly drawn) [Compound B2, 4-[5-(3,5-Dichloro-phenyl)-5-trifluoromethyl-4,5-dihydro-isoxazol-3-yl]-2-methyl-N-((R)-2-methyl-3-oxo-isoxazolidin-4-yl)-benzamide]
≥ 80%: pest or weed control at 200 ppm [1] | pest or weed control at 200 ppm [2] | pest or weed control at 200 ppm [3] | pest or weed control at 200 ppm [4] | pest or weed control at 12.5 ppm [5] | pest or weed control at 200 ppm [6] | pest or weed control at 200 ppm [7]

C#CCN1OC[C@@H](NC(=O)c2ccc(C3=NOC(c4cc(Cl)cc(Cl)c4)(C(F)(F)F)C3)cc2C)C1=O (stereo partly drawn) [Compound B3, 4-[5-(3,5-Dichloro-phenyl)-5-trifluoromethyl-4,5-dihydro-isoxazol-3-yl]-2-methyl-N-((R)-2-propargyl-3-oxo-isoxazolidin-4-yl)-benzamide]
≥ 80%: pest or weed control at 200 ppm [1] | pest or weed control at 200 ppm [2] | pest or weed control at 200 ppm [3] | pest or weed control at 200 ppm [4] | pest or weed control at 12.5 ppm [5] | pest or weed control at 200 ppm [6] | pest or weed control at 200 ppm [7]

CCN1OC[C@@H](NC(=O)c2ccc(C3=NO[C@@](c4cc(Cl)cc(Cl)c4)(C(F)(F)F)C3)cc2C)C1=O [Compound G1, 4-[5-(3,5-dichloro-phenyl)-5-(S)-trifluoromethyl-4,5-dihydro-isoxazol-3-yl]-2-methyl-N—((R)-2-ethyl-3-oxo-isoxazolidin-4-yl)-benzamide]
≥ 80%: pest or weed control at 200 ppm [1] | pest or weed control at 200 ppm [2] | pest or weed control at 200 ppm [3] | pest or weed control at 200 ppm [4] | pest or weed control at 12.5 ppm [5] | pest or weed control at 200 ppm [6] | pest or weed control at 200 ppm [7]
